Data as given in US6090828A, “5-aryleheteroarylalkyl-1,3,5-trisubstituted-1,2,4-triazole compounds for treatment of circulatory disorders” (priority 1997, dated 2000).
Where two headings read alike, the source gives them in different places.

Columns and labels:
[1] = tested on: angiotensin II receptor; conditions: cited from earlier work; for angiotensin II antagonist activity: binding experiments, functional assays and in vivo tests, literature
[2] = target: smooth muscle angiotensin II receptor; test: Assay A: Angiotensin II Binding Activity; conditions: 50% displacement of specifically bound 125I-AII; rat uterine membranes; pH 7.5; 25° C., 60 min
Experimental: Compounds of the invention were tested for ability to bind to the smooth muscle angiotensin II receptor using a rat uterine membrane preparation. […] Rat uterine membranes were prepared from fresh tissue. All procedures were carried out at 4° C. Uteri were stripped of fat and homogenized in phosphate-buffered saline at pH 7.4 containing 5 mM EDTA. The homogenate was centrifuged at 1500×g for 20 min., and the supernatant was recentrifuged at 100,000×g for 60 min. The pellet was resuspended in buffer consisting of 2 mM EDTA and 50 mM Tris-HCl (pH 7.5) to a final protein concentration of 4 mg/ml. […] The reaction was initiated by the addition of membrane protein and the mixture was incubated at 25° C. for 60 min. The incubation was terminated with ice-cold 50 mM Tris-HCl (pH 7.5) and the mixture was filtered to separate membrane-bound labelled peptide from the free ligand. The incubation tube and filter were washed with ice-cold buffer. Filters were assayed for radioactivity in a Micromedic gamma counter. Nonspecific binding was defined as binding in the presence of 10 μM of unlabelled AII. Specific binding was calculated as total binding minus nonspecific binding. […] Binding data were analyzed by a nonlinear least-squares curve fitting program.

[3] = target: T1, rabbit aortic rings (Oryctolagus cuniculus, UniProt P34976); test: Assay B: In Vitro Vascular Smooth Muscle Response for AII; design: species or system rabbit (male New Zealand white); conditions: rabbit aorta rings, two rabbits per antagonist, antagonist 10^-5 M, 5 minutes, AII contraction, Schild
T1 construct: The thoracic aorta was removed, cleaned of adherent fat and connective tissue and then cut into 3-mm ring segments; from tissue; host or cells: rabbit thoracic aorta rings, endothelium removed
T1 sequence (P34976 1-359): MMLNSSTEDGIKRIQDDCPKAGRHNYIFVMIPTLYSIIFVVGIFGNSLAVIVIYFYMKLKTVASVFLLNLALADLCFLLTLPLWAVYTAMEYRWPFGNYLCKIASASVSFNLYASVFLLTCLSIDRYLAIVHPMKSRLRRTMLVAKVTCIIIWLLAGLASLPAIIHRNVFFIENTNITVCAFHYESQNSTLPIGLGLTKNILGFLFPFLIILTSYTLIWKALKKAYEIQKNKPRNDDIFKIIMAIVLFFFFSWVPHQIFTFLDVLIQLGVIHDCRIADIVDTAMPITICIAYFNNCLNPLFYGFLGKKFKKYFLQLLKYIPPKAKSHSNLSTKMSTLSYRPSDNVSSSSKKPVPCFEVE
Experimental: The compounds of the invention were tested for antagonist activity in rabbit aortic rings. Male New Zealand white rabbits (2-2.5 kg) were sacrificed using an overdose of pentobarbital and exsanguinated via the carotid arteries. The thoracic aorta was removed, cleaned of adherent fat and connective tissue and then cut into 3-mm ring segments. The endothelium was removed from the rings by gently sliding a rolled-up piece of filter paper into the vessel lumen. The rings were then mounted in a water-jacketed tissue bath, maintained at 37° C., between moveable and fixed ends of a stainless steel wire with the moveable end attached to an FT03 Grass transducer coupled to a Model 7D Grass Polygraph for recording isometric force responses. […] The preparations were equilibrated for one hour before approximately one gram of passive tension was placed on the rings. Angiotensin II concentration-response curves were then recorded (3×10^-10 to 1×10^-5 M). Each concentration of AII was allowed to elicit its maximal contraction, and then AII was washed out repeatedly for 30 minutes before rechallenging with a higher concentration of AII. Aorta rings were exposed to the test antagonist at 10^-5 M for 5 minutes before challenging with AII. Adjacent segments of the same aorta ring were used for all concentration-response curves in the presence or absence of the test antagonist. […] The pA2 value is the concentration of the antagonist which increases the EC50 value for AII by a factor of two. Each test antagonist was evaluated in aorta rings from two rabbits.

[4] = tested on: pressor response to AII; test: Assay C: In Vivo Intragastric Pressor Assay Response for AII Antagonists; design: species or system rat (male Sprague-Dawley); conditions: 3 mg/kg (i.g.), AII 30 ng/kg i.v. bolus; for Duration: followed to 180 minutes; for inhibition in vivo at 3 mg/kg: Rattus norvegicus, po, conscious rats
Experimental: The catheters were tunneled subcutaneously to exit dorsally, posterior to the head and between the scapulae. The catheters were filled with heparin (1000 units/ml of saline). The rats were returned to their cage and allowed regular rat chow and water ad libitum. After full recovery from surgery (3-4 days), rats were placed in Lucite holders and the arterial line was connected to a pressure transducer. Arterial pressure was recorded on a Gould polygraph (mmHg). Angiotensin II was administered as a 30 ng/kg bolus via the venous catheter delivered in a 50 μl volume with a 0.2 ml saline flush. The pressor response in mm Hg was measured by the difference from pre-injection arterial pressure to the maximum pressure achieved. The AII injection was repeated every 10 minutes until three consecutive injections yielded responses within 4 mmHg of each other. These three responses were then averaged and represented the control response to AII. The test compound was suspended in 0.5% methylcellulose in water and was administered by gavage. The volume administered was 2 ml/kg body weight. The standard dose was 3 mg/kg. Angiotensin II bolus injections were given at 30, 45, 60, 75, 120, 150, and 180 minutes after gavage. The pressor response to AII was measured at each time point. The rats were then returned to their cage for future testing. A minimum of 3 days was allowed between tests. Percent inhibition was calculated for each time point following gavage by the following formula: [(Control Response-Response at time point)/Control Response]×100.

[5] = read-out: pA2 (first of two values) (converted)
[6] = read-out: pA2 (second of two values) (converted)

IC50 [2] [nM]	Kb [3, 5] [nM]	Kb [3, 6] [nM]	Structure (SMILES)	angiotensin II antagonist activity [1]	residual agonist activity ([1]; background statement)	Duration [4] [min]	inhibition in vivo at 3 mg/kg [4] [%]
			CCCCc1nc(Cl)c(CC(=O)O)n1Cc1ccccc1Cl [2-n-butyl-4-chloro-1-(2-chlorobenzyl)imidazole-5-acetic acid]	specific competitive angiotensin II antagonist activity			
			CNCC(=O)N[C@@H](CCCN=C(N)N)C(=O)N[C@H](C(=O)N[C@@H](Cc1ccc(O)cc1)C(=O)N[C@H](C(=O)N[C@@H](Cc1cnc[nH]1)C(=O)N1CCC[C@H]1C(=O)N[C@@H](C)C(=O)O)C(C)C)C(C)C [Saralasin]		significant residual agonist activity		
20	27.5	70.8	CCCCn1nc(C2OCCCO2)nc1Cc1ccc(-c2ccccc2-c2nnn[nH]2)nc1 [Example 31, 5-[2-[5-[[1-butyl-3-[2-(1,3-dioxanyl)]-1H-1,2,4-triazol-5-yl]methyl]-2-pyridinyl]phenyl]-1H-tetrazole]			180	25
			CCCCc1nc(Cl)c(CC(=O)O)n1Cc1ccccc1[N+](=O)[O-] [2-butyl-4-choloro-1-(2-nitrobenzyl)imidazole-5-acetic acid]	specific competitive angiotensin II antagonist activity			
9.8	20.4	28.2	CCCCn1nc(C(OCC)OCC)nc1Cc1ccc(-c2ccccc2-c2nnn[nH]2)nc1 [Example 27, 5-[2-[5-[[1-butyl-3-diethoxymethyl-1H-1,2,4-triazol-5-yl]methyl]-2-pyridinyl]phenyl]-1H-tetrazole]			150	10
21	12	27.5	CCCCn1nc(C(O)CCC)nc1Cc1ccc(-c2ccccc2-c2nnn[nH]2)nc1 (centres unmarked) [Example 10, 5-[2-[5-[[1-butyl-3-(1-hydroxybutyl)-1H-1,2,4-triazol-5-yl]methyl]-2-pyridinyl]phenyl]-1H-tetrazole]			150	10
54	5.89	7.24	CCCCn1nc(-c2ccccc2Cl)nc1Cc1ccc(-c2ccccc2-c2nnn[nH]2)nc1 [Example 9, 5-[2-[5-[[1-butyl-3-(2-chlorophenyl)-1H-1,2,4-triazol-5-yl]methyl]-2-pyridinyl]phenyl]-1H-tetrazole]			> 180	30
